Laboratory results taken from PMC8433531 (Proceedings of the National Academy of Sciences of the …, 2021).

Legend:
[1] = tested on: SARS-CoV-2; details: cited from earlier work
[2] = tested on: SARS-CoV-2; assay type: cell-based; details: for antiviral activity against SARS-CoV-2 in iAECs: iAEC2
[3] = tested on: SARS-CoV-2; assay: Hit validation across cell systems; assay type: cell-based; details: Huh7, LNCaP, Caco-2, Vero E6, iAEC2
[4] = tested on: SARS-CoV-2; assay: Viral binding assay on Huh7 cells; assay type: cell-based; details: lactoferrin 1,250 and 6,250 nM, remdesivir 10 nM, NaClO3 7 d
[5] = tested on: SARS-CoV-2; assay: microbe, parasite or virus in culture; assay type: cell-based; details: Severe acute respiratory syndrome coronavirus 2, Huh-7, 48 h
[6] = tested on: SARS-CoV-2; assay type: cell-based
[7] = tested on: SARS-CoV-2; assay: SARS-CoV-2 infection of Caco-2 cells with MEK inhibitors; assay type: cell-based; details: Caco-2, 10 µM
[8] = tested on: SARS-CoV-2; assay type: cell-based; details: Huh7, MOI of 1, 1,000 nM, 24 and 48 h p.i., versus untreated

Molecule: CC(C)/N=c1\cc2n(-c3ccc(Cl)cc3)c3ccccc3nc-2cc1Nc1ccc(Cl)cc1 [CLOFAZIMINE]
- viral infection in a hamster model of disease [1]: block viral infection
- antiviral activity against SARS-CoV-2 in iAECs [2]: dose-responsive antiviral activity

Molecule: CCc1nc(C(N)=O)c(Nc2ccc(N3CCC(N4CCN(C)CC4)CC3)c(OC)c2)nc1NC1CCOCC1 [Gilteritinib]
- antiviral activity against SARS-CoV-2 in iAECs [2]: dose-responsive antiviral activity

Molecule: CC(C)[N+]1(C)[C@@H]2CC[C@H]1C[C@@H](OC(=O)C(CO)c1ccccc1)C2 (some centres unmarked) [Ipratropium Bromide]
- efficacy across all tested cell systems [3]: maintained efficacy across all tested cell systems
- antiviral activity against SARS-CoV-2 in iAECs [2]: dose-responsive antiviral activity

Molecule: O=C(NC1CCN(CCCCC2(C(=O)NCC(F)(F)F)c3ccccc3-c3ccccc32)CC1)c1ccccc1-c1ccc(C(F)(F)F)cc1 [Lomitapide]
- efficacy across all tested cell systems [3]: maintained efficacy across all tested cell systems
- antiviral activity against SARS-CoV-2 in iAECs [2]: dose-responsive antiviral activity

Molecule: [Na+].[O-][Cl+2]([O-])[O-] [NaClO3]
- SARS-CoV-2 attachment to Huh7 cells [4]: reduced

Molecule: CCC(CC)COC(=O)[C@H](C)N[P@](=O)(OC[C@H]1O[C@@](C#N)(c2ccc3c(N)ncnn23)[C@H](O)[C@@H]1O)Oc1ccccc1 [Remdesivir]
- IC50 [5]: 6.7 nM
- efficacy across all tested cell systems [3]: maintained efficacy across all tested cell systems
- antiviral activity at high MOI [2]: retained antiviral activity
- antiviral activity against SARS-CoV-2 in iAECs [2]: dose-responsive antiviral activity

Molecule: Cc1cc(OCCN2CCOCC2)nn1-c1ccc2ccccc2c1 [S1RA]
- antiviral activity at high MOI [2]: retained antiviral activity
- antiviral activity against SARS-CoV-2 in iAECs [2]: dose-responsive antiviral activity

Molecule: CC(NC(=O)[C@H](Cc1ccccc1)NC(=O)OCc1ccccc1)C(=O)CF (some centres unmarked) [Z-FA-FMK]
- efficacy across all tested cell systems [3]: maintained efficacy across all tested cell systems

Molecule: Cn1cnc2c(F)c(Nc3ccc(Br)cc3F)c(C(=O)NOCCO)cc21 [binimetinib]
- increase of viral infection [6]: greater than twofold increase
- exacerbation of infection [7]: exacerbation effect was observed

Molecule: CCN(CC)CCCC(C)Nc1ccnc2cc(Cl)ccc12 (centres unmarked) [chloroquine]
- concentrations at which efficacious ([6]; Huh7, dose-response confirmation): above 1 µM

Molecule: O=C(c1ccc(F)c(F)c1Nc1ccc(I)cc1F)N1CC(O)([C@@H]2CCCCN2)C1 [cobimetinib]
- increase of viral infection [6]: greater than twofold increase
- percentage of viral RNA-positive cells [8]: increased at 48 h p.i., but not at 24 h p.i.

Molecule: CC(=O)Nc1cccc(-n2c(=O)n(C3CC3)c(=O)c3c(Nc4ccc(I)cc4F)n(C)c(=O)c(C)c32)c1 [trametinib]
- increase of viral infection [6]: greater than twofold increase
- exacerbation of infection [7]: exacerbation effect was observed

Molecule: transferrin: transferrin (Sigma-Aldrich; T2036), control to rule out iron chelation
- antiviral activity (iron chelation control) ([6]; Huh7, 6,250 nM): inactive
